The results in this text go back to US6630128B1, “Porphyrin derivatives their use in photodynamic therapy and medical devices containing them” (Destiny Pharma Limited, priority 1999, dated 2003).

A short description of series [1]: Singlet oxygen quantum yields (singlet oxygen phosphorescence at 1270 nm). It counts as physicochemical. Conditions: aerated toluene, excitation 355 nm, 20-23° C., relative to TPP ΦΔ=0.58. On the procedure:
The singlet oxygen quantum yields were determined by the direct measurement of singlet oxygen phosphorescence at 1270 nm. Samples were excited using the third harmonic of a Q-switched Nd:YAG (neodymium: yttrium-aluminium-garnet) Spectra Physics GCR-150-10 laser, operating at an excitation wavelength of 355 nm. A small fraction of the laser output was passed through a solution state filter containing aqueous cobalt (II) sulphate (CoSO4) to remove residual 532 and 1064 nm radiation and then down a 8 mm diameter liquid light guide (Oriel). For the measurements the end of the light guide was held against a 1 cm×1 cm fluorescence cuvette (Hellma) holding the sample. During the course of the experiments the incident laser energy for each measurement was determined using a pyroelectric detector held behind the sample. This detector was calibrated at the start of the experiment using a second calibrated energy meter (Gentec ED100). The laser energy was adjusted by placing cells containing aqueous sodium nitrite between the CoSO4 filter and the light guide. Typical pulse energies used were in the range of 25-500 μJ per pulse. Shot to shot noise was estimated to be <10% and sets of 20 shots gave an average value within <3%.
Phosphorescence from the sample was collected and passed through an interference filter centred at 1270 nm available from (Infra Red Engineering Ltd) and then focused onto the active area of a liquid nitrogen cooled germanium photodiode (North Coast EO-817P). The output from this device was AC coupled to a digital oscilloscope (Tektronix TDS-320) which digitised and averaged the transients. Typically 20 laser shots were used for each sample. The averaged data was transferred to a PC where it was stored and analysed.
A stock solution of each of the title compounds of Examples 67 to 81 was prepared by dissolving a small sample of the respective title compound in approximately 5 ml of toluene (Fisher Scientific, Analytical grade). The exact concentrations of the stock solution was not determined.
A working solution of each of the title compounds of Examples 67 to 81 was prepared by diluting the respective stock solution with toluene to give an absorbance of 0.100±0.005 at 355 nm when placed in a ultraviolet/visible spectrometer (ATI-Unicam UV-2) compared to a reference cell containing the pure toluene solvent. The ultraviolet/visible spectrum of each sample was also recorded over the range 300-700 nm.
All of the data were recorded at ambient temperature, 20-23° C., and the solutions were aerated. The singlet oxygen emission decay was recorded for each sample using 5 laser energies and the data for each measurement were fitted to an exponential decay of the form I(t)=A.exp(−t/τ), where I(t) is the measured intensity of singlet oxygen phosphorescence at time t, A is the intensity extrapolated back to t=0 (ie when the laser fires), and τ is the lifetime of singlet oxygen. A typical decay for the title compound of Example 78 in toluene excited at 355 nm using a pulse energy of 365 μJ, where A=19.6 and τ=27.8 μs, is shown in FIG. 2.
A plot of A versus the incident laser energy was drawn for each sample and the slope determined. The slope of such a graph is proportional to the singlet oxygen quantum yield. An example of a plot showing the linear relationship between the singlet oxygen emission intensity and the laser energy for the title compound of Example 78 and meso-tetraphenylporphyrin (TPP) is shown in FIG. 3.
The experiments were carried out using batches of 5 samples of the working solution of each of the title compounds of 67 to 81 plus one reference sample meso-tetraphenylporphyrin (TPP). Each run was repeated at least once. The data sets obtained for each sample were within ±5% of the mean value.
The dominant sources of error in the experiment include the shot-to-shot fluctuations in the laser and the difference in absorbances of the samples at the excitation wavelength. The values have an error of ±10%. […]

A short description of series [2]: Fluorescence quantum yields (corrected emission spectra, relative to TPP). It counts as physicochemical. Conditions: excitation wavelength 355 nm, emission 550-800 nm. As for the experimental part:
Mass spectra were recorded on a Finnigan MAT TSQ 700 triple quadrupole mass spectrometer equipped with an […]. The matrix-assisted laser desorption/ionization mass spectra of the porphyrins were obtained using a dithranol matrix. FAB-MS spectra were obtained using a 3-nitrobenzyl alcohol (NOBA) matrix. ^1H-NMR spectra were measured at 60 MHz on a Jeol JNM-PMX60 spectrometer, at 270 MHz on a Jeol EX 270 spectrometer and at 300 MHx on a Varian Gemini-300 spectrometer in CDCl3 using TMS as an internal reference. Ultraviolet/visible spectra of solutions of compounds in tetrahydrofuran (THF) or toluene were measured using a Hitachi U-3000 spectrophotometer or a ATI-Unicam UV-2 spectrophotometer. Reflectance-absorbance infra red (RAIR) spectra were recorded on a BIO-RAD FTS 165 spectrophotometer. Fluorescence emission spectra were recorded using a Spex Fluorolog 3 spectrophotometer at an excitation wavelength of 355 nm, emission at 550 to 800 nm, with a bandpass of 2 nm.
The emission spectra were recorded using a Spex Fluorolog 3, excitation wavelength=355 nm, emission 550-800 nm, with a bandpass of 2 nm. A spectrum was recorded for each of the title compounds of Examples 67 to 81.
The fluorescence quantum yield for each of the title compounds of Examples 67 to 81 was determined by measuring the integral of the corrected emission spectra for each compound and calculated relative to TPP=0.11 (Handbook of Photochemistry Ed 2, Murov, Carmichael and Hug, Dekker 1993). The fluorescence quantum yield for each of the title compounds of Examples 67 to 81 are listed in Table 1; values for Zn TPP and Mg TPP are included in Table 1 for reference but they were not measured in this work.

Turning to “5,5′-{4,4′-[12,12′-Dithiobis-(dodecyloxy)-phenyl]}-10,10′,15,15′,20,20′-hexakis-(3,4,5-tridecyloxy-phenyl)-diporphyrinato Magnesium [Example 68]”, in series [1], the “ΦΔ (singlet oxygen quantum yield)” value is 0.39 ± 0.04. Moreover, the “Quantum yield of fluorescence, relative to TPP = 0.11” value in series [2] turned out to be 0.10.

For “5,5′-{4,4′-[12,12′-Dithiobis-(dodecyloxy)-phenyl]}-10,10′,15,15′,20,20′-hexakis-(3,4,5-tridecyloxy-phenyl)-diporphyrinato Zinc [Example 67]”, the “ΦΔ (singlet oxygen quantum yield)” value in series [1] turned out to be 0.65 ± 0.07. Moreover, in series [2], the “Quantum yield of fluorescence, relative to TPP = 0.11” value came to 0.04.

On to “5-[4-(6-but-3-Enyloxy-hexyloxy)-phenyl]-10,15,20-tris-(3,4,5-tridecyloxy-phenyl)-porphyrinato Zinc [Example 70]”, for which the “ΦΔ (singlet oxygen quantum yield)” value in series [1] worked out at 0.75 ± 0.07. In addition, the “Quantum yield of fluorescence, relative to TPP = 0.11” value in series [2] stood at 0.04.

Turning to “5-[4-(6-but-3-Enyloxy-hexyloxy)-phenyl]-10,15,20-tris-(3,5-didecyloxy-phenyl)-porphyrinato Zinc [Example 79]”, the “ΦΔ (singlet oxygen quantum yield)” value in series [1] is on record as 0.76 ± 0.08. Moreover, the “Quantum yield of fluorescence, relative to TPP = 0.11” value in series [2] is given as 0.04.

With “5-[4-(12-but-3-Enyloxy-dodecyloxy)-phenyl]-10,15,20-tris-(3,4,5-trihexyloxy-phenyl)-porphyrinato Zinc [Example 72]”, in series [1], the “ΦΔ (singlet oxygen quantum yield)” value was 0.71 ± 0.07. Besides, the “Quantum yield of fluorescence, relative to TPP = 0.11” value in series [2] came to 0.04.

For “5-[4-(12-but-3-Enyloxy-dodecyloxy)-phenyl]-10,15,20-tris-(3,5-didecyloxy-phenyl)-porphyrinato Zinc [Example 80]”, the “ΦΔ (singlet oxygen quantum yield)” value in series [1] was found to be 0.75 ± 0.07. The “Quantum yield of fluorescence, relative to TPP = 0.11” value in series [2] is reported as 0.04.

As to “5-[4-(12-but-3-Enyloxy-dodecyloxy)-phenyl]-10,15,20-tris-(3,5-dihexadecyloxy-phenyl)-porphyrinato Zinc [Example 81]”, the “ΦΔ (singlet oxygen quantum yield)” value in series [1] is listed as 0.70 ± 0.07. In series [2], the “Quantum yield of fluorescence, relative to TPP = 0.11” value is 0.04.

For the compound `C=CCCOCCCCCCOc1ccc(-c2c3nc(c(-c4cc(OCCCCCC)c(OCCCCCC)c(OCCCCCC)c4)c4ccc([n-]4)c(-c4cc(OCCCCCC)c(OCCCCCC)c(OCCCCCC)c4)c4nc(c(-c5cc(OCCCCCC)c(OCCCCCC)c(OCCCCCC)c5)c5ccc2[n-]5)C=C4)C=C3)cc1.[Zn+2]` [Example 69, 5-[4-(6-but-3-Enyloxy-hexyloxy)-phenyl]-10,15,20-tris-(3,4,5-trihexyloxy-phenyl)-porphyrinato Zinc], the “ΦΔ (singlet oxygen quantum yield)” value in series [1] amounted to 0.71 ± 0.07. In series [2], the “Quantum yield of fluorescence, relative to TPP = 0.11” value worked out at 0.04.

Consider `C=CCCOCCCCCCOc1ccc(-c2c3nc(c(-c4cc(OCCCCCCCCCCCCCCCC)c(OCCCCCCCCCCCCCCCC)c(OCCCCCCCCCCCCCCCC)c4)c4ccc([n-]4)c(-c4cc(OCCCCCCCCCCCCCCCC)c(OCCCCCCCCCCCCCCCC)c(OCCCCCCCCCCCCCCCC)c4)c4nc(c(-c5cc(OCCCCCCCCCCCCCCCC)c(OCCCCCCCCCCCCCCCC)c(OCCCCCCCCCCCCCCCC)c5)c5ccc2[n-]5)C=C4)C=C3)cc1.[Zn+2]` [Example 71, 5-[4-(6-but-3-Enyloxy-hexyloxy)-phenyl]-10,15,20-tris-(3,4,5-trihexadecyloxy-phenyl)-porphyrinato Zinc], for which the “ΦΔ (singlet oxygen quantum yield)” value in series [1] stood at 0.72 ± 0.07. Moreover, the “Quantum yield of fluorescence, relative to TPP = 0.11” value in series [2] was determined as 0.04.

As for `C=CCCOCCCCCCCCCCCCOc1ccc(-c2c3nc(c(-c4cc(OCCCCCCCCCC)c(OCCCCCCCCCC)c(OCCCCCCCCCC)c4)c4ccc([n-]4)c(-c4cc(OCCCCCCCCCC)c(OCCCCCCCCCC)c(OCCCCCCCCCC)c4)c4nc(c(-c5cc(OCCCCCCCCCC)c(OCCCCCCCCCC)c(OCCCCCCCCCC)c5)c5ccc2[n-]5)C=C4)C=C3)cc1.[Zn+2]` [Example 73, 5-[4-(12-but-3-Enyloxy-dodecyloxy)-phenyl]-10,15,20-tris-(3,4,5-tridecyloxy-phenyl)-porphyrinato Zinc], in series [1], the “ΦΔ (singlet oxygen quantum yield)” value came out at 0.71 ± 0.07. In series [2], the “Quantum yield of fluorescence, relative to TPP = 0.11” value stood at 0.04.

As to `C=CCCOCCCCCCCCCCCCOc1ccc(-c2c3nc(c(-c4cc(OCCCCCCCCCCCCCCCC)c(OCCCCCCCCCCCCCCCC)c(OCCCCCCCCCCCCCCCC)c4)c4ccc([n-]4)c(-c4cc(OCCCCCCCCCCCCCCCC)c(OCCCCCCCCCCCCCCCC)c(OCCCCCCCCCCCCCCCC)c4)c4nc(c(-c5cc(OCCCCCCCCCCCCCCCC)c(OCCCCCCCCCCCCCCCC)c(OCCCCCCCCCCCCCCCC)c5)c5ccc2[n-]5)C=C4)C=C3)cc1.[Zn+2]` [Example 74, 5-[4-(12-but-3-Enyloxy-dodecyloxy)-phenyl]-10,15,20-tris-(3,4,5-trihexadecyloxy-phenyl)-porphyrinato Zinc], the “ΦΔ (singlet oxygen quantum yield)” value in series [1] is recorded as 0.71 ± 0.07. Further, the “Quantum yield of fluorescence, relative to TPP = 0.11” value in series [2] is listed as 0.04.

Take `C=CCCOCCCCCCCCCCCCCCCCOc1ccc(C2=c3ccc4[n]3[Zn][n]3c(ccc3C(c3cc(OCCCCCCCCCC)c(OCCCCCCCCCC)c(OCCCCCCCCCC)c3)=C3C=CC(=N3)C=4c3cc(OCCCCCCCCCC)c(OCCCCCCCCCC)c(OCCCCCCCCCC)c3)C(c3cc(OCCCCCCCCCC)c(OCCCCCCCCCC)c(OCCCCCCCCCC)c3)=C3C=CC2=N3)cc1` [Example 75, 5-[4-(16-but-3-Enyloxy-hexadecyloxy)-phenyl]-10,15,20-tris-(3,4,5-tridecyloxy-phenyl)-porphyrinato Zinc]: the “ΦΔ (singlet oxygen quantum yield)” value in series [1] was 0.71 ± 0.07. Besides, the “Quantum yield of fluorescence, relative to TPP = 0.11” value in series [2] is 0.04.

In the case of `C=CCCOCCCCCCCCCCCCCCCCOc1ccc(-c2c3nc(c(-c4cc(OCCCCCCCCCCCCCCCC)c(OCCCCCCCCCCCCCCCC)c(OCCCCCCCCCCCCCCCC)c4)c4ccc([n-]4)c(-c4cc(OCCCCCCCCCCCCCCCC)c(OCCCCCCCCCCCCCCCC)c(OCCCCCCCCCCCCCCCC)c4)c4nc(c(-c5cc(OCCCCCCCCCCCCCCCC)c(OCCCCCCCCCCCCCCCC)c(OCCCCCCCCCCCCCCCC)c5)c5ccc2[n-]5)C=C4)C=C3)cc1.[Zn+2]` [Example 76, 5-[4-(16-but-3-Enyloxy-hexadecyloxy)-phenyl]-10,15,20-tris-(3,4,5-trihexadecyloxy-phenyl)-porphyrinato Zinc], in series [1], the “ΦΔ (singlet oxygen quantum yield)” value is 0.66 ± 0.07. Also, the “Quantum yield of fluorescence, relative to TPP = 0.11” value in series [2] was found to be 0.03.
